Source: patent US7271154B2, “Antibiotic conjugates” (Merckle GmbH, priority 2002, dated 2007)

Columns and labels:
PMN = assay: Antimicrobial agent uptake by PMN (bioassay); type: in vitro ADME; conditions: intracellular/extracellular concentration, 1 h
[1] = compared with erythromycin; cited from earlier work

SMILES | I/E ratio (PMN) | stability in the presence of acids [1]
C[C@H]1COc2c(N3CCN(C)CC3)c(F)cc3c(=O)c(C(=O)O)cn1c23 [Levofloxacin] | 4.8 | 
CC[C@H]1OC(=O)[C@H](C)[C@@H](O[C@H]2C[C@@](C)(OC)[C@@H](O)[C@H](C)O2)[C@H](C)[C@@H](O[C@@H]2O[C@H](C)C[C@H](N(C)C)[C@H]2O)[C@](C)(O)C[C@@H](C)CN(C)[C@H](C)[C@@H](O)[C@]1(C)O [Azithromycin] |  | more stable than erythromycin
CC1(C)SC2C(NC(=O)Cc3ccccc3)C(=O)N2C1C(=O)O (stereo not shown) [Penicillin G, 3,3-Dimethyl-7-oxo-6-phenylacetylamino-4-thia-1-aza-bicyclo[3.2.0]heptane-2-carboxylic acid] | 0.16 | 
COc1c(N2C[C@@H]3CCCN[C@@H]3C2)c(F)cc2c(=O)c(C(=O)O)cn(C3CC3)c12 [Moxifloxacin] | 12.0 | 
